Values joined by “and” are separate entries in the source; they are usually repeats but may differ in a detail not shown here. Equal entries are not always repeated. Where two headings read alike, the source gives them in different places.
Biological target: T1, human type 5 17β-hydroxysteroid dehydrogenase (Homo sapiens, UniProt P42330)
T1 construct: screen again a human placental λgt11 cDNA to get the full length cDNA clone; expressed in transfected cells; host or cells: human embryonal kidney 293 cells (pCMV / pCMV-neo vector)
T1 sequence (P42330 1-323): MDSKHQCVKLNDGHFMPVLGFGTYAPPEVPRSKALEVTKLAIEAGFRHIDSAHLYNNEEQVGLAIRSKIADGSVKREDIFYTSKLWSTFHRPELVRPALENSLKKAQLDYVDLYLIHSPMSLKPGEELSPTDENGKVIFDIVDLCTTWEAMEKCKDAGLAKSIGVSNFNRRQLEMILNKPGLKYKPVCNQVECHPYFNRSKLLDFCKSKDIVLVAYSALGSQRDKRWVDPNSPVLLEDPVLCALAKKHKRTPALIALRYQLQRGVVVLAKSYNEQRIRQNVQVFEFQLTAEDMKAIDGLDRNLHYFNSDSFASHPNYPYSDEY
Experiment: Inhibition of human type 5 17β-HSD activity in transfected 293 cells
Format: cell-based
Design: Inhibition Type V 17B-HSD % Inh. At 3 · 10^−7 (second value in parentheses): concentration or dose not given beside the values
Conditions: for Inhibition Type V 17B-HSD % Inh. At 3 · 10^−7 (first value in parentheses): first of two concentrations; for Inhibition Type V 17B-HSD % Inh. At 3 · 10^−7 (second value in parentheses): second of two concentrations
Method: The manner in which IC50 was determined is described in “Efficacy of the Preferred Inhibitors”. Lower numbers for IC50 are desirable.
Using a oligoprimer pair (5′-GGA-AAT-CGT-GAC-AGG-GAA-TGG-ATT-CCA-AAC-AG-3′, 5′-GGA-ATT-CTT-TAT-TGT-ATT-TCT-GGC-CTA-TGG-AGT-GAG-3′) derived from human aldoketoreductase (Qin et al., J. Steroid Biochem. Molec. Biol. 46: 673-679, 1993) and polymerase chain reaction (PCR), we have amplified from a human placental λgt11 cDNA library (Clontech Laboratories Inc., Palo Alto, Calif.) a cDNA fragment that was used as probe to screen again a human placental λgt11 cDNA to get the full length cDNA clone. The amplified cDNA fragment was purified on agarose gel and labeled with [α^32P]dCTP (Amersham Corp.) using the random primer labeling kit from Pharmacia Inc. PCR amplification reaction medium contained 50 mM KCl, 10 mM Tris-HCl, pH 8.3, 0.1% gelatin, 1 mM MgCl2, 250 μM dNTP, 0.25 μM oligonucleotide primers, and 200 ng of DNA prepared from human placental λgt11 cDNA library. The aqueous phase was overlaid with 75 μL of mineral oil to avoid evaporation. The mixture was heated at 98° C. for 5 min, following the temperature reduction to 72° C., 1 unit of Taq DNA polymerase was added. Using a DNA Thermal Cycler (Perkin-Elmer Corp.), 30 cycles of amplification were carried out using a step program (94° C., 1 min; 60° C., 1 min; and 72° C., 1 min)/cycle.
Approximately 5×10^5 recombinant phage plaques were screened with 1.5×10^6 cpm/ml of the probe. Prehybridization was performed for 4 h at 42° C. in 50% formamide, 5× Denhardt's solution (1× Denhardt's being 0.02% polyvinyl pyrrolidone, 0.02 Ficoll, 0.02 bovine serum albumin), 5×SSPE (1×SSPE being 0.18M NaCl, 10 mM NaH2PO4, pH 7.4, 1 mM EDTA), 0.1% SDS, and 100 μg/ml yeast tRNA. The probe was denatured by heating at 100° C. for 5 min, before being added to the hybridization solution at 42° C. overnight. Filters were then washed twice at room temperature in 2×SSC (1×SSC being […], pH 7.0), 0.1% SDS, and twice in 0.1×SSC, 0.1% SDS at 60° C. Positive recombinant plaques were purified by replating twice and grown in liquid culture. Phage DNA were isolated by centrifugation for 90 min at 105,000×g, and DNA was then isolated by phenol extraction and precipitation with isopropanol (Karen et al. 1987; In: Current Protocols in Molecular Biology (F. M. Ausubel, R. Brent, E. Kingston, D. D. Moore, T. G. Seidman, T. A. Smith and K. Struhl, eds), Wiley & Sons, New York, pp. 1.13.1-1.13.6).
The phage DNA were digested with EcoRI restriction enzymes and the resulting cDNA fragments were inserted into the EcoRI site downstream to the cytomegalovirus (CMV) promoter of the pCMV vector (kindly provided by Dr. Matthew, Cold Spring Harbor, N.Y., USA). Recombinant pCMV plasmids were amplified in Escherichia Coli DH5α competent cells, and were isolated by alkaline lysis procedure (Maniatis et al., In: Molecular cloning: a laboratory manual, Cold Spring Harbor Laboratory., 1982). Sequencing of double-stranded plasmid DNA was performed according to the dideoxy chain termination method (Sanger et al., PNAS 74: 5453-5467, 1977) using a T7 DNA polymerase sequencing kit (Pharmacia LKB Biotechnology). To avoid errors, all sequences were determined by sequencing both strands of the DNA. Oligonucleotide primers were synthesized in our laboratory with a 394 DNA/RNA synthesizer (Applied Biosystem).
The pCMV vector contain 576 nucleotides of the pCMV promoter (followed by 432 bp of small t intron (fragment 4713-4570) and poly adenylation signal (2825-2536)of SV40, followed by 1989 bp of the Pvu II(628)-AatII (2617) fragment from pUC 19 vector (New England Biolabs) that contains an E. Coli origin of replication and an ampicillin resistance gene for propagation in E. Coli. […]

[1] = read-out: Inhibition Type V 17B-HSD IC50
[2] = Table 4′, read-out: Inhibition Type V 17β-HSD IC50
[3] = read-out: Inhibition Type V 17β-HSD IC50

Row | Compound | IC50 [2] | further results
1 | CC12C=CC(=O)C=C1C=CC1C2CCC2(C)C(=O)C3(CCCCC3)CC12 (stereo not drawn) [CS-204] |  | IC50 [1]: 94 nM
2 | CC1(C)CCC2(CCC3C4CCc5ccccc5C4CCC32C)OC1=O (stereo not drawn) [CS-224] | 2.9 nM and 10.7 nM | 
3 | CC(=O)O[C@]1(C)C(=O)CCC2C3C=C(C)C4=CC(=O)C=C[C@]4(C)C3CC[C@@]21C (stereo partly drawn) [CS-237] |  | IC50 [1]: 9 ± 1 nM
4 | CSCCOc1ccc2c(c1)CCC1C2CCC2(C)C1CCC21CCCC(=O)O1 [CS-242, 3-Methylthioethyloxy-1,3,5(10)-estratrien-17(R)-spiro-2′-(6′-oxo) Tetrahydropyran] | 6.6 ± 0.9 nM | 
5 | CCC(=O)O[C@]1(C(C)=O)CCC2C3C=C(C)C4=CC(=O)C[C@H](C)[C@]4(C)C3CC[C@@]21C (stereo partly drawn) [CS-243] |  | IC50 [3]: 3.5 ± 0.1 nM
6 | CCCC(=O)OC1(C(C)=O)CCC2C3C=C(C)C4=CC(=O)CC(C)C4(C)C3CCC21C (stereo not drawn) [CS-245] |  | IC50 [3]: 3.2 ± 0.1 nM
7 | C[C@]12CCC3c4ccc(O)cc4CCC3C1CC[C@@]21CCCC(=O)O1 (stereo partly drawn) [EM-919, 1,3,5(10)-estratrien-3-ol-17(R)-spiro-2′(6′-oxo)tetrahydropyran] | 10 ± 1.4 nM | 
8 | CC1=C[C@@H]2[C@H](CC[C@]3(C)C(=O)C4(CCCCC4)C[C@@H]23)[C@@]2(C)CCC(=O)C=C12 [EM-925] |  | Inhibition Type V 17B-HSD % Inh. At 3 · 10^−7 (first value in parentheses) (3 · 10^−7): (46%; Inhibition Type V 17B-HSD % Inh. At 3 · 10^−7 (second value in parentheses) (3 · 10^−7): 81) %
9 | COC(=O)CCCC(=O)O[C@]1(C(C)=O)CC[C@H]2[C@@H]3C=C(C)C4=CC(=O)CC[C@]4(C)[C@H]3CC[C@@]21C [EM-1007, 6-Methyl-4,6-pregnadien-17α-ol-3,20-dione 4′-Carbomethoxybutyrate] |  | Inhibition Type V 17β-HSD % Inh. (at 3.10^−6): 86) %; Inhibition Type V 17β-HSD % Inh. (at 3.10^−7): (81%
10 | CC1CCC2(CCC3C4CCc5ccccc5C4CCC32C)OC1=O (stereo not drawn) [EM-1025] | 6.1 nM and 4.3 nM | 
11 | CCCC(=O)O[C@]1(C)C(=O)CCC2C3C=C(C)C4=CC(=O)CC[C@]4(C)C3CC[C@@]21C (stereo partly drawn) [EM-1078] |  | IC50 [1]: 3.8 ± 0.6 nM
12 | CCC[C@@H]1CC2C3C=CC4=CC(=O)CC[C@]4(C)C3CC[C@]2(C)C1=O (stereo partly drawn) [EM-1097] |  | IC50 [1]: 10 nM
13 | CN1C(=O)C=C[C@]2(C)C3CC[C@@]4(C)C(CC[C@@]45CCCC(=O)O5)C3CCC12 (stereo partly drawn) [EM-1122-CS] |  | Inhibition Type V 17β-HSD % inh. At 3.10^−6 (Table 5 column 2, 3.10^−6): 95) %; Inhibition Type V 17β-HSD % inh. At 3.10^−7 (Table 5 column 2, 3.10^−7): (80%
14 | C[C@]12CCC3c4cc([N+](=O)[O-])c(O)cc4CCC3C1CC[C@@]21CCCC(=O)O1 (stereo partly drawn) [EM-1124, 2-Nitro-1,3,5(10)-estraetriene-3-ol-17(R)-spiro-2′-(6′-oxo)tetrahydropyran] | 3 ± 0.2 nM | 
15 | CC1(C)CCC2(CCC3C4CCc5cc(O)c([N+](=O)[O-])cc5C4CCC32C)OC1=O (stereo not drawn) [EM-1125-CS] | 2 nM | 
16 | CC1CCC2(CCC3C4CCc5cc(O)c([N+](=O)[O-])cc5C4CCC32C)OC1=O [EM-1126, 2-Nitro-1,3,5(10)-estratrien-3-ol-17(R)-spiro-2′-(5′-methyl-6′-oxo)tetrahydropyran] | 6 ± 1 nM | 
17 | CC1CCC2(CCC3C4CCc5cc(O)c([N+](=O)[O-])cc5C4CCC32C)OC1=O [EM-1131, 2-Nitro-1,3,5(10)-estratrien-3-ol-17(R)-spiro-2′-(5′-methyl-6′-oxo)tetrahydropyran] | 3 nM | 
18 | CC1(C)CC[C@@]2(CCC3C4CCc5cc(F)ccc5C4CC[C@@]32C)OC1=O (stereo partly drawn) [EM-1157-CS] | 4 nM and 10 nM | 
19 | CC(=O)O[C@]1(C(=O)N(C)C)CCC2C3C=C(C)C4=CC(=O)CC[C@]4(C)C3CC[C@@]21C (stereo partly drawn) [EM-1159] |  | IC50 [3]: 14 ± 2 nM

Row | Compound | IC50 [2] | further results
20 | CC12CCC3c4ccc(F)cc4CCC3C1CCC21CCCC(=O)O1 (stereo not drawn) [EM-1170-CS] | 7 ± 1 nM | 
21 | CCC[C@]1(F)CC2C3C=CC4=CC(=O)CC[C@]4(C)C3CC[C@]2(C)C1=O (stereo partly drawn) [EM-1183] |  | IC50 [1]: 4.6 ± 0.4 nM
22 | CC(=O)[C@@]1(OC(=O)CCCCF)CCC2C3C=C(C)C4=CC(=O)CC[C@]4(C)C3CC[C@@]21C (stereo partly drawn) [EM-1195-CS] |  | IC50 [3]: 4 ± 0.5 nM
23 | CC(C)C[C@@H]1CC2C3C=CC4=CC(=O)CC[C@]4(C)C3CC[C@]2(C)C1=O (stereo partly drawn) [EM-1273-CS] |  | IC50 [1]: 9 nM
24 | COc1ccc(CC(=O)O[C@]2(C(C)=O)CCC3C4C=C(C)C5=CC(=O)C=C[C@]5(C)C4CC[C@@]32C)cc1 (stereo partly drawn) [EM-1291] |  | IC50 [3]: 7 ± 1 nM
25 | C[C@]12CCC(=O)C=C1C=C[C@@H]1[C@@H]2CC[C@]2(C)C(=O)C3(CC4CC4C3)C[C@@H]12 (stereo partly drawn) [EM-1299, 4,6-Androstadien-3,17-dione-16-spirobicyclo[3′.1′.0′]-hexane] |  | Inhibition Type V 17B-HSD % Inh. At 3 · 10^−7 (first value in parentheses) (3 · 10^−7): (73%; Inhibition Type V 17B-HSD % Inh. At 3 · 10^−7 (second value in parentheses) (3 · 10^−7): 99) %
26 | CCS(=O)(=O)Oc1ccc2c(c1)CCC1C2CCC2(C)C1CCC21CCC(C)(C)C(=O)O1 (stereo not drawn) [EM-1364-CS] | 17 nM | 
27 | CC1(C)CCC2(CCC3C4CCc5cc(OS(C)(=O)=O)ccc5C4CCC32C)OC1=O (stereo not drawn) [EM-1365-CS] | 12 nM | 
28 | COCCOc1ccc2c(c1)CCC1C2CCC2(C)C1CCC21CCC(C)(C)C(=O)O1 [EM-1368-CS, 3-Methoxyethoxy-1,3,5(10)-estratrien-17(R)-spiro-2′-(5′,5′-dimethyl-6′-oxo)-tetrahydropyran] | 21 nM | 
29 | CCOc1ccc2c(c1)CCC1C2CC[C@@]2(C)C1CC[C@@]21CCC(C)(C)C(=O)O1 (stereo partly drawn) [EM-1369, 3-Ethoxy-1,3,5(10)-estratrien-17(R)-spiro-2′-(5′,5′-dimethyl-6′-oxo)-tetrahydropyran] | 46 nM | 
30 | COc1ccc2c(c1)CCC1C2CCC2(C)C1CCC21CCC(C)(C)C(=O)O1 (stereo not drawn) [EM-1370] | 43 nM | 
31 | COCCOc1cc2c(cc1Cl)C1CCC3(C)C(CCC34CCC(C)(C)C(=O)O4)C1CC2 (stereo not drawn) [EM-1371-CS] | 19 nM and 20 nM | 
32 | CC1(C)CC[C@@]2(CC[C@H]3[C@@H]4CCc5c(cc(Br)c(O)c5Br)[C@H]4CC[C@@]32C)OC1=O [EM-1382-CS] |  | Inhibition Type V 17β-HSD % Inh. at 3 · 10^−6 (Table 4′, 3 · 10^−6): 86%; Inhibition Type V 17β-HSD % Inh. at 3 · 10^−7 (Table 4′, 3 · 10^−7): 74%
33 | COc1c(Br)cc2c(c1Br)CCC1C2CCC2(C)C1CCC21CCC(C)(C)C(=O)O1 (stereo not drawn) [EM-1385-CS] | 51 nM | 
34 | COc1ccc2c(c1)C(=O)CC1C3CCC4(CCC(C)(C)C(=O)O4)C3(C)CCC21O (stereo not drawn) [EM-1386] | 25 nM | 
35 | CN(C)CCOc1ccc2c(c1)CCC1C2CCC2(C)C1CCC21CCC(C)(C)C(=O)O1 (stereo not drawn) [EM-1389-CS] | 25 nM | 
36 | CC1(C)CCC2(CCC3C4CCc5cc(OCCN6CCCCC6)ccc5C4CCC32C)OC1=O [EM-1390-CS, 3-(N-piperidyl-ethyl)-1,3,5(10)-estratrien-17(R)-spiro-2′-(5′,5′-dimethyl-6′-oxo)-tetrahydropyran] | 48 nM | 
37 | CC1(C)CCC2(CCC3C4CCc5c(cc(Cl)c(O)c5Cl)C4CCC32C)OC1=O (stereo not drawn) [EM-1391-CS] | 19 nM | 
